Values after ≈ are worked out from the molar mass of the structure shown. Values joined by “and” are separate entries in the source; they are usually repeats but may differ in a detail not shown here. Equal values may be shown once. Read-outs that look alike come from different tables or passages of the source.
How the values were obtained:
[1] = Equilibrium surface tension, Wilhelmy plate method (CMC, γcmc, Amin and derived quantities); type: physicochemical; settings: for Amin: from Gibbs adsorption equation
Protocol: CMCs are determined from the inflections in the plots of equilibrium surface tension against the logarithm of the concentration. For the interested reader, the Gibbs-free energy of micellization, ΔGmic, the Gibbs-free energy of adsorption, ΔGads, and the efficiency of surfactant adsorption pC20 were calculated based on their definitions, as presented in Table 2.
The surface activity reflects the amphiphiles’ adsorption behavior on the air–aqueous solution interface. The surface tension (γ) was obtained using the Wilhelmy plate method with a K100 Processor Tensiometer (KRUSS, Hamburg, Germany). Both the critical micellar concentration (CMC) and equilibrium surface tension at the CMC (γcmc) were derived from the typical plot of surface tension (γ) against the logarithm of concentration (Log C). The surface excess (Γmax) and minimal area per molecule at the air–aqueous solution interface (Amin) at different temperatures were calculated from the Gibbs adsorption equation [3, 46]:(2) Γmax=−1/2.303RT(dγ/dlogc) and (3) Amin=10^20/NAΓmax where R is the ideal gas constant, 8.31 J∙mol^−1∙K^−1; T is the measuring temperature, K; γ is the surface tension, N/m; c is the concentration, mol.L^−1; Amin is the minimal area per molecule, Å^2, and NA is Avogadro’s number, 6.022·10^23 mol^−1.
For each molecule, several solutions of a wide range of concentrations were prepared. Before measuring, each solution was finely homogenized with the help of a magnetic stirring bar. The stirring time was fixed at 30 min in all cases. […] Then, measurements were performed once for each concentration, at the solution preparation’s temperature, with an uncertainty of ±1 °C.

[2] = cited from earlier work; for CMC / γcmc: Wilhelmy plate method at 25 °C
[3] = Precipitation on cooling previously heated 50 mM aqueous solutions; type: physicochemical; settings: 50 mM in water
Protocol: For commercial alkyl glucosides, the Tk decreases in the following sequence: C8αGlc > C8βGal >> C8βGlc ≈ C8αGal. […] The obtained Tk for C8αGlc is around 40 °C in accordance with previously published values. However, as determined by the same experimental protocol, the Tk for C8βGal is about 29 °C, much lower than 42 °C derived from the phase diagram reported by Sakya et al. A possible explanation is that Sakya et al. synthesized and purified C8βGal by themselves, whereas we carried our measurements on commercially purchased C8βGal. […] For this reason, we assume that many researchers have been able to investigate their aqueous solutions at 25 °C, as mentioned in the introduction. In addition, when cooling the previously heated solutions with the same molecular concentration of 50 mM, we noted that C8αGlc precipitated much faster than C8βGal. […] This may, to some extent, be explained by a more favorable crystal structure for C8αGlc than C8βGal. With regard to C8αGal, which is presented in commercial samples as a highly viscous liquid, we expect it to have the weakest crystal structure and a very low Tk value. However, our experimental methods cannot give its exact Tk. […]

[4] = cited from earlier work
[5] = design: method as in doi:10.1039/C4MD00122B; settings: ITC at 25 °C; cited from earlier work
[6] = Water solubility limit by visual examination (transparent/turbid); type: physicochemical; settings: for solubility: thermodynamic from solid, read-out: Solubility Limit (S/mM)
Text: Water solubility reflects the ability of a particular molecule to dissolve and its interaction with water. To characterize the water solubility of most amphiphile molecules, especially the ionic surfactants, the Krafft point (Tk) is often used, referring to the critical temperature above which micelles form or the melting point of the hydrated solid surfactant. Two general approaches were used to measure the Tks of the molecules investigated herein: (1) a visual examination of the dissolution phenomenon for binary molecule/water systems, and (2) a quantitative measurement by using differential scanning calorimetry (DSC) analysis. The visual observation procedure is detailed below. […] Consequently, molecules can be classified into two major types: those soluble in water at RT and others insoluble at RT, with the solubility limit being called S (expressed in mM). The aspect of the sample, either transparent or turbid, is determined by direct visual examination. Tk determination with DSC is particularly applicable in the case of molecules insoluble at RT, for which a concentrated binary molecule/water mixture with a mass fraction of 20% of each molecule (C >> CMC in most cases) was prepared at 65 °C under stirring for 30 min to obtain a homogeneous system. These pre-homogenized aqueous systems were cooled and conserved in a refrigerator at 4 °C for a suitable period (>7 days), during which equilibrated hydrated crystals formed and precipitated. Then, for each molecule, about a 200–400 mg crystal sample was taken and put into the calorimeter cell. The first equilibrium phase was programmed at 4 °C for 1 h, followed by a slow heating stage from 4 °C to 65 °C at a rate of 0.5 °C/min. Tk was determined based on the location of the endothermic peak on the DSC curve, if any. All agitations were performed using a standard magnetic hotplate stirrer, MR 3001K (Heidolph Instruments, Schwabach, Germany). DSC curves were obtained from a commercial µDSC7 evo calorimeter (SETARAM Instrumentation, Caluire-et-Cuire, France). Tks are reported as the averages of at least two measurements as well as their standard deviations.

[7] = Krafft temperature (Tk) by visual examination and DSC of molecule/water systems; type: physicochemical; settings: in water; observation and DSC; average ± SD of at least two measurements
Text: Water solubility reflects the ability of a particular molecule to dissolve and its interaction with water. To characterize the water solubility of most amphiphile molecules, especially the ionic surfactants, the Krafft point (Tk) is often used, referring to the critical temperature above which micelles form or the melting point of the hydrated solid surfactant. Two general approaches were used to measure the Tks of the molecules investigated herein: (1) a visual examination of the dissolution phenomenon for binary molecule/water systems, and (2) a quantitative measurement by using differential scanning calorimetry (DSC) analysis. The visual observation procedure is detailed below. We start with adding the molecule into 5–50 mL water, in a concentration range between 10^−2 mM and 10^3 mM (corresponding to a range of a surfactant mass concentration well below 20%), keeping the suspension under stirring for a certain time at room temperature (RT). Consequently, molecules can be classified into two major types: those soluble in water at RT and others insoluble at RT, with the solubility limit being called S (expressed in mM). The aspect of the sample, either transparent or turbid, is determined by direct visual examination. Tk determination with DSC is particularly applicable in the case of molecules insoluble at RT, for which a concentrated binary molecule/water mixture with a mass fraction of 20% of each molecule (C >> CMC in most cases) was prepared at 65 °C under stirring for 30 min to obtain a homogeneous system. These pre-homogenized aqueous systems were cooled and conserved in a refrigerator at 4 °C for a suitable period (>7 days), during which equilibrated hydrated crystals formed and precipitated. Then, for each molecule, about a 200–400 mg crystal sample was taken and put into the calorimeter cell. The first equilibrium phase was programmed at 4 °C for 1 h, followed by a slow heating stage from 4 °C to 65 °C at a rate of 0.5 °C/min. Tk was determined based on the location of the endothermic peak on the DSC curve, if any. All agitations were performed using a standard magnetic hotplate stirrer, MR 3001K (Heidolph Instruments, Schwabach, Germany). DSC curves were obtained from a commercial µDSC7 evo calorimeter (SETARAM Instrumentation, Caluire-et-Cuire, France). Tks are reported as the averages of at least two measurements as well as their standard deviations.

precipitation when cooling the previously heated solution [3] | solubility ([6]; water, water, at RT) [mM] | solubility ([6]; water, water, at T > Tk) [mM] | C20 ([1]; T = 25 °C) [mM] | pC20 ([1]; T = 25 °C) | ΔGads ([1]; T = 25 °C) [kcal/mol] | ΔGmic ([1]; T = 25 °C) [kcal/mol] | CMC ([1]; T = 25 °C (T > Tk)) | γcmc ([1]; T = 25 °C (T > Tk)) [mN/m] | Amin ([1]; T = 25 °C) [Å^2/molecule] | Compound | CMC [2] [mM] | γcmc [2] [mN/m] | CMC [5] [mM] | further results
no change was observed over one month | 10 to 20 (≈ 2.92 to 5.85 mg/mL) | > 100 | – | – | – | – | – | – | – | CCCCCCCCO[C@@H]1O[C@H](CO)[C@H](O)[C@H](O)[C@H]1O [Molecule C8βGal, octyl β-D-galactopyranoside, reference compound] | 16 | 30.5 | 31.7 ± 0.7 | C20 ([1]; T = 40 °C): 3.2 mM; pC20 ([1]; T = 40 °C): 2.5; ΔGads ([1]; T = 40 °C): -7.1 kcal/mol; ΔGmic ([1]; T = 40 °C): -4.4 kcal/mol; CMC ([1]; T = 40 °C (T > Tk)): 20 mM and 20 ± 1 mM; γcmc ([1]; T = 40 °C (T > Tk)): 28.5 mN/m and 28.5 ± 0.5 mN/m; Amin ([1]; T = 40 °C): 46.3 ± 1.7 Å^2/molecule; Tk ([4]; derived from the phase diagram of Sakya et al.): 42 °C; aspect of solution ([6]; 20 mM in water at room temperature): nearly transparent
– | > 100 | – | 2.7 | 2.6 | -6.4 | -4.1 | 21.2 mM and 21.2 ± 0.8 mM | 31.0 ± 0.15 | 38.5 ± 1.9 | CCCCCCCCO[C@@H]1O[C@H](CO)[C@@H](O)[C@H](O)[C@H]1O [Molecule C8βGlc, octyl β-D-glucopyranoside, reference compound] | – | – | – | Amin ([2]; ref 23): 38 Å^2/molecule; Amin ([2]; ref 46): 42 Å^2/molecule; solubility relative to octyl-α-D-glucoside (C8αGlc) ([4]; ref 25): about seven times larger
within an hour | – | > 100 | – | – | – | – | – | – | – | CCCCCCCCO[C@H]1O[C@H](CO)[C@@H](O)[C@H](O)[C@H]1O [Molecule C8αGlc, Octyl α-D-glucopyranoside, reference compound] | 12 | 30.5 | – | C20 ([1]; T = 50 °C): 2.8 mM; pC20 ([1]; T = 50 °C): 2.6; ΔGads ([1]; T = 50 °C): -7.0 kcal/mol; ΔGmic ([1]; T = 50 °C): -4.7 kcal/mol; CMC ([1]; T = 50 °C (T > Tk)): 15.5 mM and 15.5 ± 0.5 mM; γcmc ([1]; T = 50 °C (T > Tk)): 30.7 mN/m and 30.7 ± 0.3 mN/m; Amin ([1]; T = 50 °C): 43 ± 1.8 Å^2/molecule; Solubility Limit (S/mM) ([6]; water, at RT): insoluble
– | > 100 | – | 3.8 | 2.4 | -6.4 | -3.6 | 51.7 mM and 51.7 ± 1.5 mM | 29.5 ± 0.2 | 45.8 ± 0.9 | CCCCCCCCO[C@H]1O[C@H](CO)[C@H](O)[C@H](O)[C@H]1O [Molecule C8αGal, Octyl α-D-galactopyranoside, reference compound] | – | – | 30.2 ± 0.4 | Tk (Krafft temperature) [7]: <4 °C
